According to patent US11458138B2 (Novartis AG, priority 2017, dated 2022):

How the values were obtained:
[1] = test system: YAP nuclear translocation in HaCaT cells; assay: YAP Translocation Assay (HaCaT Cells); assay type: cell-based, human; settings: Homo sapiens, 24 hours
Summary of the method: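 HaCaT cells (20,000/well) in DMEM + 10% FBS were plated overnight at 37° C, then exposed to compound for 24 h at 37° C. Cells were fixed with PFA, permeabilized with 0.1% Triton/1.5% BSA and imaged by high-content imaging.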

[2] = test system: Phospho-YAP (SER127) in HaCaT cells; assay: pYAP HTRF Assay (HaCaT Cells); assay type: cell-based, human; settings: Homo sapiens, 2 hours
Summary of the method: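 HaCaT cells at 5500 cells/well were cultured 48 hours at 37° C, then treated with compound for 2 hours. Phospho-YAP (Ser127) was detected by HTRF after an overnight (20 hrs) room-temperature incubation, read as the 665 nm/620 nm ratio.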

[3] = test system: Phospho-YAP (Ser127) in JHH-5 cells; assay: pYAP HTRF Assay (JHH-5 cells); assay type: cell-based; settings: 2 hours
Summary of the method: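 JHH-5 cells (24000/well) cultured 24 h at 37 °C in William's E with 10% FBS, then exposed to compounds for 2 h at 37 °C. After lysis, pYAP d2/cryptate antibodies incubated 18 h at room temperature; HTRF ratio 665/620 nm ×10000.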

[4] = target: Human LATS2 kinase domain protein (Homo sapiens (Human), UniProt Q9NRM7); assay: LATS2 Biochemical Caliper Assay (Compound Examples 1-290); settings: 400 micromolar ATP
Protocol: Human LATS2 kinase domain protein was purchased from Carnabio (catalogue number 01-124), which harbors the catalytic domain of amino acids 553-1088, and was co-purified with human His-tagged MOBKL1A (NP_775-739). 5 microlitre of enzyme buffer, 100 nL of compounds and 5 microlitre of localising aid buffer were added into 384-well plates. […] The plates were incubated at 25° C. for 3 hours. 40 microlitre of stop buffer with 25 mM EDTA (NanoSyn) was added to each well to terminate the reaction. Localising aids and products were separated electrophoretically using the microfluidic-based Caliper Labchip 3000 Drug Discovery System (Caliper Life Sciences). Plates were read using blue laser excitation and green fluorescence detection and quantified by fluorescence intensity.

LATS1 = LATS1 (Homo sapiens (Human), UniProt O95835); assay: LATS1 biochemical assay (Table 1A, Compound Examples 1-290; method in the earlier part)
[5] = test system: human corneal endothelial cells (CECs); assay: Human corneal endothelial cell population expansion: fold cell expansion; assay type: cell-based; settings: 10 micromolar compound, X-VIVO15 medium, 10 days, ratio of expanded to seeded cells
Protocol: (§1) Cells were cultured at 37° C. in 5% CO2.
(§2) For each compound, two sets of cultures were generated. A first set of cultures was fixed in 4% PFA for 20 minutes at room temperature after cells isolated from the cornea had attached to the cell culture dish (typically 24 h after cell plating). A second set of cultures was fixed in 4% PFA for 20 minutes at room temperature 10 days after the first one.
(§3) To measure cell density in all fixed cultures, the number of nuclei stained with Sytox Orange (ThermoFisher) were counted per surface area as follows: fixed cell cultures fixed were permeabilized in a solution of 0.3% Triton X-100 (Sigma-Aldrich). Cells were then labeled in a solution of 0.5 micromolar of Sytox Orange in PBS for 5 minutes at room temperature. Nuclei were counted under a Zeiss epifluorescence microscope. The expansion factor was then determined by calculating the ratio of the expanded population of cells to population of seeded cells.

[6] = test system: human corneal endothelial cells (CECs); assay: Human corneal endothelial cell population expansion: endothelial cell density in vitro; assay type: cell-based; settings: 10 micromolar compound, X-VIVO15 medium, 10 days
Protocol: as §1, §2, §3

[7] = target: Human LATS1 kinase domain protein (Homo sapiens (Human), UniProt O95835); assay: LATS1 Biochemical Caliper Assay (Compound Examples 291-335); settings: Caliper EZ Reader
Protocol: The LATS1 biochemical Caliper assay was performed as following.
Human LATS1 kinase domain protein was purchased from Carnabio (catalogue number 01-123; lot 15CBS-0098D). Human LATS1, catalytic domain [589-1130(end) amino acids of accession number NP_004681.1] was co-expressed as N-terminal GST-fusion protein (90 kDa) with human His-tagged MOBKL1A [1-216(end) amino acids of accession number NP_775739.1] using baculovirus expression system. GST-LATS1 was purified by using glutathione sepharose chromatography. The substrate (Fluo-SGKtide; Peptide for LATS1; lot BS-41067) has the following sequence: 5-Fluo-Nva-[…]-amide (SEQ ID NO: 27) x TFA and was purchased from Biosyntan.
The reaction is performed in reaction buffer containing 50 mM Hepes pH 7,5; 0.02% Tween20; 0.02% BSA; 1 mM DTT; 10 uM Na3VO4 and 10 mM beta-Glycerolphosphat and fresh added 1 mM MgCl2 and qsp H2O.
The substrate solution (2× conc.) in Reaction Buffer contains 300 μM ATP and 4 μM Fluo-SGKtide.
The kinase solution (2× conc.) in Reaction Buffer contains 20 nM LATS1 kinase. 4.5 μL of 2× conc. Kinase solution, 50 nL of 1.8 mM compounds and 4.5 μL of substrate solution were added into 384-well plates black small volume from Greiner and incubated at 32° C. for 1 hour. 15 μL of stop buffer containing 100 mM Hepes pH 7,5; 5% DMSO; 0.1% Coating reagent; 10 mM EDTA and 0.02% Brij35 and qsp H2O to each well to terminate the reaction.
Substrates and products were electrophoretically separated using the microfluidic-based Caliper EZ Reader System (Caliper Life Sciences) using a 12 sipper chip (cat 760404). The separation takes place in Coating Buffer (idem Stop buffer) and containing 0.1% Coating reagent CR3 and 0.5% coating reagent CR8 (Perkin Elmer).
Plates were read using a LED with an excitation at 488 nm and a detection at 520 nm to 5 quantify the fluorescence intensity.

Sequence of LATS1 (O95835 whole entry, looked up): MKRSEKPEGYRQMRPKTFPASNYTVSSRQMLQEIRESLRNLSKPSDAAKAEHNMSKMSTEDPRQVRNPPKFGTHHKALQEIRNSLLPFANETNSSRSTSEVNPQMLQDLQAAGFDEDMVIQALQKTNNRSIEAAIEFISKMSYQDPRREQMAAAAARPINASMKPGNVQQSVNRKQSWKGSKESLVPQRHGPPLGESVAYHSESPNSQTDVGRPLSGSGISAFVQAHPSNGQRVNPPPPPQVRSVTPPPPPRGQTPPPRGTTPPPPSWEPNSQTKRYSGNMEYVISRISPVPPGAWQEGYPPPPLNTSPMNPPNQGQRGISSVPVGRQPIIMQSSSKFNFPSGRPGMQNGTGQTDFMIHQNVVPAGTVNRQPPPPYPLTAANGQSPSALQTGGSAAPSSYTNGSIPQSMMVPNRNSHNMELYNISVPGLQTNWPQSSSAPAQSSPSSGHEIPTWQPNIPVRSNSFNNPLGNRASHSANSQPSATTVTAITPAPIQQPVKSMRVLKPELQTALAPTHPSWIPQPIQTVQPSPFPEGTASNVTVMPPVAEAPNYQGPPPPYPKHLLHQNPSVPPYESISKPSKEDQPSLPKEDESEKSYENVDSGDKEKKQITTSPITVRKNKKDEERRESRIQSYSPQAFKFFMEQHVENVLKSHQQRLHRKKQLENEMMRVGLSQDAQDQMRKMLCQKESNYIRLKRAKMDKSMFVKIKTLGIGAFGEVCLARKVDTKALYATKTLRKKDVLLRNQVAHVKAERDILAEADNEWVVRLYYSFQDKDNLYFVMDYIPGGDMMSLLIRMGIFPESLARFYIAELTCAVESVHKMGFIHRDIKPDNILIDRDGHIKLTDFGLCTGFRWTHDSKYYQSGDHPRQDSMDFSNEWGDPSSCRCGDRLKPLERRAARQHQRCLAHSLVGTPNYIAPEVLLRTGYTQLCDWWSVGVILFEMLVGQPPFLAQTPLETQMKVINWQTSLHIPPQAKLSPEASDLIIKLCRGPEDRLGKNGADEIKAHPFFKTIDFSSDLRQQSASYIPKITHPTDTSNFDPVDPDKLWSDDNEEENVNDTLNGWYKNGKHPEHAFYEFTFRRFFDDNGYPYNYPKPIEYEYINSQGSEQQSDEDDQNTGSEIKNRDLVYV
Sequence of LATS1 (Q7L9L4 whole entry partner, looked up): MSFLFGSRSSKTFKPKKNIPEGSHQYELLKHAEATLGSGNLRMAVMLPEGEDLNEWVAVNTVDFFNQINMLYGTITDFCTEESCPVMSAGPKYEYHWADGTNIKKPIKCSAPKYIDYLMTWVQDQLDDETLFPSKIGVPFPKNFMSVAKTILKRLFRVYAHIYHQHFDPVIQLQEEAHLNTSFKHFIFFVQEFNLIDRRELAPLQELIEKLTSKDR
Sequence of Human LATS1 kinase domain protein (O95835 whole entry, looked up, the tested form may be a part): as the sequence (O95835 whole entry, looked up) above
Sequence of Human LATS1 kinase domain protein (Q7L9L4 whole entry partner, looked up, the tested form may be a part): as the sequence (Q7L9L4 whole entry partner, looked up) above
Sequence of Human LATS2 kinase domain protein (Q9NRM7 553-1088): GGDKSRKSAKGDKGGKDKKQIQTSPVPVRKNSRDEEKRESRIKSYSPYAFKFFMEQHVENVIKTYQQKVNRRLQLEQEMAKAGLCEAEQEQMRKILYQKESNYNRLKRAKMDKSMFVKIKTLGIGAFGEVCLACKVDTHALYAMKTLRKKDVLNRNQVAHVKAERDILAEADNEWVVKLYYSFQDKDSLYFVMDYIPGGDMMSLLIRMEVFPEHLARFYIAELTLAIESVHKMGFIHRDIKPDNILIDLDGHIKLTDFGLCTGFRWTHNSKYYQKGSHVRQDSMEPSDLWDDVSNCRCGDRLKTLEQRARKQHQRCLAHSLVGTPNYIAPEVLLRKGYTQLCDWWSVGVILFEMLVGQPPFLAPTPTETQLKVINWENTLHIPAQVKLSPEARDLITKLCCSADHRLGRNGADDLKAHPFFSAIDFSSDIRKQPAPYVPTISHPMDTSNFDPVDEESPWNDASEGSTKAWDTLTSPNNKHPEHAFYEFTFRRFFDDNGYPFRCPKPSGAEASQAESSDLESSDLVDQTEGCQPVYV
Sequence of Human LATS2 kinase domain protein (Q7L9L4 whole entry partner, the tested form may be a part): as the sequence (Q7L9L4 whole entry partner, looked up) above

Compound | IC50 [3] [nM] | IC50 [7] [nM] | further results
CC(Nc1nc(-c2ccncc2)nc2cnccc12)C(F)(F)F (stereo not shown) [Example 4, 2-(pyridin-4-yl)-N-(1,1,1-trifluoropropan-2-yl)pyrido[3,4-d]pyrimidin-4-amine] | > 10000 |  | EC50 [1]: 2530 nM; IC50 [2]: 1150 nM; IC50 [4]: 1 nM; IC50 (LATS1): 1 nM
CC(C)N(C)c1nc(-c2ccncc2)nc2cnccc12 [Example 5, N-methyl-N-(propan-2-yl)-2-(pyridin-4-yl)pyrido[3,4-d]pyrimidin-4-amine] | 2300 |  | EC50 [1]: 2480 nM; IC50 [2]: 2190 nM; Expansion factor (Fold Cell expansion) [5]: 408; IC50 (LATS1): 2 nM; Endothelial Cell density in vitro [6]: 3911 cells/mm^2
CC(C)(COCCO)Nc1nc(-c2ccncc2)nc2cnccc12 [Example 11, 2-(2-methyl-2-{[2-(pyridin-4-yl)pyrido[3,4-d]pyrimidin-4-yl]amino}propoxy)ethan-1-ol] |  |  | EC50 [1]: 1430 nM; IC50 [2]: 646 nM; IC50 [4]: 12 nM; IC50 (LATS1): 3 nM
CC(C)(C)Nc1nc(-c2ccncc2)nc2cnccc12 [Example 59, N-tert-butyl-2-(pyridin-4-yl)pyrido[3,4-d]pyrimidin-4-amine] | 1100 |  | EC50 [1]: 341 nM; IC50 [2]: 19 nM; IC50 [4]: 4 nM; IC50 (LATS1): 1 nM
Cn1nccc1-c1nc(NC2(C)CCC2)c2ccncc2n1 [Example 186, 2-(1-methyl-1H-pyrazol-5-yl)-N-(1-methylcyclobutyl)pyrido[3,4-d]pyrimidin-4-amine] |  |  | EC50 [1]: > 20000 nM; IC50 [4]: 50 nM; IC50 (LATS1): 9 nM
CC1(Nc2cc(-c3ccncc3)nc3cnccc23)CC1 [Example 297, N-(1-methylcycloropyl)-2-(pyridin-4-yl)-1,7-naphthyridin-4-amine] | > 10000 | 7.5 | 
CC(C)(CN)CNc1cc(-c2ccncc2)nc2cnccc12 [Example 301, 2,2-dimethyl-N1-(2-(pyridin-4-yl)-1,7-naphthyridin-4-yl)propane-1,3-diamine] | > 10000 | 5.2 | 
CC(CN)CNc1cc(-c2ccncc2)nc2cnccc12 (stereo not shown) [Example 304, 2-methyl-N^1-(2-(pyridin-4-yl)-1,7-naphthyridin-4-yl)propane-1,3-diamine] | > 10000 | 9.6 | 
Cc1n[nH]cc1-c1nc(NC(C)(C)CCN(C)C)c2ccncc2n1 [Example 309, N^1,N^1,3-trimethyl-N^3-(2-(3-methyl-1H-pyrazol-4-yl)pyrido[3,4-d]pyrimidin-4-yl)butane-1,3-diamine] | 2000 | 0.8 | 
CN(CCC(C)(C)N)c1nc(-c2ccncc2)nc2cnccc12 [Example 315, N^1,3-dimethyl-N^1-(2-(pyridin-4-yl)pyrido[3,4-d]pyrimidin-4-yl)butane-1,3-diamine] | 5700 | 5 | 
CC(C)(CN)CNc1nc(-c2ccncc2)nc2cnccc12 [Example 317, 2,2-dimethyl-N^1-(2-(pyridin-4-yl)pyrido[3,4-d]pyrimidin-4-yl)propane-1,3-diamine] | 3200 | 0.8 | 
CN(C)CCC(C)(C)Nc1nc(-c2ccnc(N)c2)nc2cnccc12 [Example 334, N^3-(2-(2-aminopyridin-4-yl)pyrido[3,4-d]pyrimidin-4-yl)-N^1,N^1,3-trimethylbutane-1,3-diamine] |  | 6.1 | 

The next lines start with results.

IC50 [3] [nM] | IC50 [7] [nM] | Compound | further results
3300 |  | OCC1(Nc2nc(-c3ccncc3)nc3cnccc23)CCC1 [Example 101, (1-{[2-(pyridin-4-yl)pyrido[3,4-d]pyrimidin-4-yl]amino}cyclobutyl)methanol] | EC50 [1]: > 20000 nM; IC50 [2]: 5400 nM; IC50 [4]: 30 nM; IC50 (LATS1): 5 nM
1100 | 4.5 | FC(F)(F)C1(Nc2cc(-c3ccncc3)nc3cnccc23)CCC1 [Example 294, 2-(pyridin-4-yl)-N-(1-(trifluoromethyl)cyclobutyl)-1,7-naphthyridin-4-amine] | 
> 10000 | 10 | CC(C)(N)CNc1cc(-c2ccncc2)nc2cnccc12 [Example 295, 2-methyl-N1-(2-(pyridin-4-yl)-1,7-naphthyridin-4-yl)propane-1,2-diamine] | 
900 | 1.2 | CC1(Nc2cc(-c3ccncc3)nc3cnccc23)CCC1 [Example 300, N-(1-methylcyclobutyl)-2-(pyridin-4-yl)-1,7-naphthyridin-4-amine] | 
1000 | 1.2 | CN(c1cc(-c2ccncc2)nc2cnccc12)C(C)(C)C [Example 306, N-(tert-butyl)-N-methyl-2-(pyridin-4-yl)-1,7-naphthyridin-4-amine] | 
1300 | 1.9 | CC1(Nc2cc(-c3ccncn3)nc3cnccc23)CCC1 [Example 307, N-(1-methylcyclobutyl)-2-(pyrimidin-4-yl)-1,7-naphthyridin-4-amine] | 
> 10000 | 68.7 | CN(C)CCC(C)(C)Nc1nc(-c2ccncn2)nc2cnccc12 [Example 308, N^1,N^1,3-trimethyl-N^3-(2-(pyrimidin-4-yl)pyrido[3,4-d]pyrimidin-4-yl)butane-1,3-diamine] | 
7700 | 2.4 | CC(C)(N)CNc1nc(-c2ccncc2)nc2cnccc12 [Example 312, 2-methyl-N^1-(2-(pyridin-4-yl)pyrido[3,4-d]pyrimidin-4-yl)propane-1,2-diamine] | 
7800 | 3.8 | NCCNc1nc(-c2ccncc2)nc2cnccc12 [Example 313, N-(2-(pyridin-4-yl)pyrido[3,4-d]pyrimidin-4-yl)ethane-1,2-diamine] | 
3100 | 1.8 | CC(C)(CC(N)=O)Nc1nc(-c2ccncc2)nc2cnccc12 [Example 318, 3-methyl-3-((2-(pyridin-4-yl)pyrido[3,4-d]pyrimidin-4-yl)amino)butanamide] | 
> 10000 | 58.1 | FC(F)(F)[C@H]1CN(c2nc(-c3ccncc3)nc3cnccc23)CCN1 [Example 319, (R)-2-(pyridin-4-yl)-4-(3-(trifluoromethyl)piperazin-1-yl)pyrido[3,4-d]pyrimidine] | 
1000 | 0.7 | CC(C)(N)C(C)(C)Nc1nc(-c2ccncc2)nc2cnccc12 [Example 320, 2,3-dimethyl-N^2-(2-(pyridin-4-yl)pyrido[3,4-d]pyrimidin-4-yl)butane-2,3-diamine] | 
 | 2.3 | CN(C)CCC(C)(C)Nc1nc(-c2c[nH]nc2C(F)(F)F)nc2cnccc12 [Example 333, N^1,N,3-trimethyl-N^3-(2-(3-(trifluoromethyl)-1H-pyrazol-4-yl)pyrido[3,4-d]pyrimidin-4-yl)butane-1,3-diamine] | 
